Legend:
purified Eis [1] = target: T1, purified Eis (Mycobacterium tuberculosis (strain ATCC 25618 / H37Rv), UniProt P9WFK7); assay type: biochemical
AAC(3)-IV [2] = assay: Inhibitor selectivity, sulfonyl isothiazoles; assay type: biochemical, E. coli; details: optimal reaction conditions for the enzyme
H37Rv Mtb = assay: Mycobacterial MIC determination by alamar blue assay, KAN with sulfonyl isothiazoles; assay type: cell-based, Mycobacterium tuberculosis; details: KAN MIC in presence of compound at concentration tested (100x IC50 or 20 μM); KAN line = absence of compound
AAC(6′)-Ie/APH(2″)-Ia [3] = target: T2, AAC(6′)-Ie/APH(2″)-Ia (Staphylococcus aureus, UniProt P0A0C1); assay: Inhibitor selectivity, sulfonyl isothiazoles; assay type: biochemical; details: optimal reaction conditions for the enzyme
AAC(2′)-Ic [4] = target: T3, AAC(2′)-Ic (Mycobacterium tuberculosis (strain ATCC 25618 / H37Rv), UniProt P9WQG9)
Method: The conditions described above for determination of IC50 values were used under the optimum conditions for each enzyme. […] AAC(6′)/APH(2″) experiments were incubated at 37° C. while AAC(3)-IV and AAC(2′)-Ic experiments were incubated at 25° C. All other methods and concentrations remained identical to those for the experiments with Eis.

K204 Mtb = assay type: cell-based, Mycobacterium tuberculosis; details: for K204 MICKAN: KAN MIC in presence of compound at concentration tested (100x IC50 or 20 μM), KAN line = absence of compound
purified Eis [5] = target: T1, purified Eis; details: read-out: IC50 (μM) in the Eis acetyltransferase assay
AAC(2′)-Ic [6] = target: T3, AAC(2′)-Ic; assay: biochemical; design: species or system Mtb
AAC(3)-IV [7] = assay: Inhibitor selectivity, sulfonamides; assay type: biochemical, E. coli; details: concentrations as high as 200 μM
Method: (§1) To examine the selectivity of our two best inhibitors (39 and 46) towards Eis, next these two compounds were tested against three other AAC enzymes: AAC(2′)-Ic from Mtb (17, 18), AAC(3)-IV from E. coli (19, 20), and AAC(6′)-Ie/APH(2″)-Ia from Staphylococcus aureus (21, 22).
(§2) The conditions utilized for determination of IC50 values were also used here under the optimum conditions for each enzyme. […] AAC(6′)-Ie/APH(2″)-Ia experiments were incubated at 37° C. All other methods and concentrations are the same as for the experiments with Eis_Mtb.

AAC(6′)-Ie/APH(2″)-Ia [8] = target: T2, AAC(6′)-Ie/APH(2″)-Ia; assay: Inhibitor selectivity, sulfonamides; assay type: biochemical; details: concentrations as high as 200 μM
Method: as §1, §2

[9] = target: Eis_Mtb acetyltransferase (Mycobacterium tuberculosis (strain ATCC 25618 / H37Rv), UniProt P9WFK7); assay type: biochemical; details: library compounds 20 μM
Mtb K204 = assay type: cell-based, Mycobacterium tuberculosis
Mtb H37Rv = assay: Mycobacterial MIC determination by alamar blue, KAN with sulfonamides; assay type: cell-based, Mycobacterium tuberculosis; details: anti-TB activity of KAN against Mtb H37Rv with compound; KAN line = KAN alone

Row | Compound | H37Rv MICKAN (H37Rv Mtb) [µg/mL] | K204 MICKAN (K204 Mtb) [µg/mL] | other results
1 | CN(c1ccccc1)S(=O)(=O)c1ccc2[nH]c(=O)c(=O)[nH]c2c1 [Compound 33] |  |  | decrease in Eis inhibitory activity compared to lead 29 (purified Eis [1]): 70 fold
2 | CC1=C(c2ccc(Cl)cc2)S(=O)(=O)N=C1N1CCC(N2CCCCC2)CC1 [Compound 46c] | 0.625 | 2.5 | inhibition of AAC(3)-IV (AAC(3)-IV [2]): no inhibition; inhibition of AAC(6′)-Ie/APH(2″)-Ia (AAC(6′)-Ie/APH(2″)-Ia [3]): no inhibition; inhibition of AAC(2′)-Ic (AAC(2′)-Ic [4]): no inhibition
3 | CC1=C(c2ccccc2)S(=O)(=O)N=C1NCCCN1CC(C)CC(C)C1 (stereo not shown) [Compound 8a] | 0.625 to 1.25 | 5 | 
4 | CC1=C(c2ccc(F)cc2)S(=O)(=O)N=C1NCc1ccccc1 [Compound 89b] | 1.25 | 10 | 
5 | CCCN1CCN(CCCNC2=NS(=O)(=O)C(c3ccc(C(C)C)cc3)=C2C)CC1 [Compound 15f] | 0.625 to 1.25 | 10 | 
6 | CC1=C(c2ccc(C)c(C)c2)S(=O)(=O)N=C1NCCCN1CCN(C2CCCCC2)CC1 [Compound 17i] | 0.625 to 1.25 | 5 | 
7 | CC1=C(c2cccc(Br)c2)S(=O)(=O)N=C1NCCN1CCOCC1 [Compound 35h] | 0.625 | 2.5 | 
8 | CC1=C(c2ccc(Cl)cc2)S(=O)(=O)N=C1NCCCN1CCN(C)CC1 [Compound 14c] | 0.625 | 5 | 
9 | CC1=C(c2ccccc2)S(=O)(=O)N=C1NCCN1CCCCC1 [Compound 33a] | 0.625 | 5 | 
10 | CC1=C(c2ccc(C)cc2)S(=O)(=O)N=C1NCCCN1CCCCCC1 [Compound 12e] | 0.625 | 2.5 | 
11 | CC1=C(c2ccc(C)c(C)c2)S(=O)(=O)N=C1NCC(=O)NCc1ccc2c(c1)OCO2 [Compound 115i] | 0.625 | 10 | 
12 | CCCNC1=NS(=O)(=O)C(c2ccc(C)c(C)c2)=C1C [Compound 139i] | 1.25 | 10 | 
13 | COc1ccc(C2=C(C)C(NCCN3CCN(C)CC3)=NS2(=O)=O)cc1 [Compound 36d] | 0.625 | 2.5 to 5 | 
14 | CC1=C(c2ccc(F)cc2)S(=O)(=O)N=C1NCCCN1CCCCC1 [Compound 6b] | 0.625 | 2.5 | 
15 | CC1=C(c2ccc(C)c(C)c2)S(=O)(=O)N=C1NCCN1CCOCC1 [Compound 35i] | 0.625 | 2.5 | 
16 | NC[C@H]1O[C@H](O[C@H]2[C@H](O)[C@@H](O[C@H]3O[C@H](CO)[C@@H](O)[C@H](N)[C@H]3O)[C@H](N)C[C@@H]2N)[C@H](O)[C@@H](O)[C@@H]1O [KAN, kanamycin A, reference compound] | 1.25 | 10 | 
17 | CCN(CC)C1=NS(=O)(=O)C(c2cccc(Cl)c2)=C1C [Compound 81g] | 0.625 | 2.5 | 
18 | CCN(CC)CCCNC1=NS(=O)(=O)C(c2ccc(C)c(C)c2)=C1C [Compound 3i] | 0.625 | 1.25 | reduction in KAN MIC against Mtb K204 (K204 Mtb): 8 fold
19 | CCCN1CCN(CCCNC2=NS(=O)(=O)C(c3ccc(C)cc3)=C2C)CC1 [Compound 15e] | 0.625 to 1.25 | 5 | 
20 | CC1=C(c2ccc(F)cc2)S(=O)(=O)N=C1NCCCN1CCCCC1C (stereo not shown) [Compound 7b] | 0.625 | 2.5 | 
21 | CC1=C(c2ccccc2)S(=O)(=O)N=C1N1CCC(N2CCCCC2)CC1 [Compound 46a] | 0.625 to 1.25 | 10 | 

Row | Compound | H37Rv MICKAN (H37Rv Mtb) [µg/mL] | K204 MICKAN (K204 Mtb) [µg/mL] | other results
22 | CC1=C(c2ccc(F)cc2)S(=O)(=O)N=C1N1CCC(N2CCCCC2)CC1 [Compound 46b] | 0.625 to 1.25 | 5 | inhibition of AAC(3)-IV (AAC(3)-IV [2]): no inhibition; inhibition of AAC(6′)-Ie/APH(2″)-Ia (AAC(6′)-Ie/APH(2″)-Ia [3]): no inhibition; inhibition of AAC(2′)-Ic (AAC(2′)-Ic [4]): no inhibition; IC50 (purified Eis [5]): 0.092 ± 0.021 µM
23 | CCN1CCN(CCNC2=NS(=O)(=O)C(c3ccc(OC)cc3)=C2C)CC1 [Compound 37d] | 0.625 to 1.25 | 5 to 10 | 
24 | CC1=C(c2ccc(C)c(C)c2)S(=O)(=O)N=C1NCCCN1CCOCC1 [Compound 13i] | 0.625 | 5 | 
25 | COc1cccc(N(C)S(=O)(=O)c2ccc3[nH]c(=O)c(=O)[nH]c3c2)c1 [Compound 39] |  |  | inhibition at 200 µM (AAC(2′)-Ic [6]; read-out: inhibition of AAC(2′)-Ic activity): 15%; inhibition of KAN acetylation by AAC(3)-IV (AAC(3)-IV [7]): did not inhibit; inhibition of KAN acetylation by AAC(6′)-Ie/APH(2″)-Ia (AAC(6′)-Ie/APH(2″)-Ia [8]): did not inhibit
26 | CC1=C(c2ccc(F)cc2)S(=O)(=O)N=C1NCc1ccco1 [Compound 87b] | 1.25 | 10 | 
27 | CC1=C(c2cccc(Cl)c2)S(=O)(=O)N=C1NCCN1CCOCC1 [Compound 35g] | 0.625 | 2.5 | 
28 | CN(c1ccc(Br)cc1)S(=O)(=O)c1ccc2[nH]c(=O)c(=O)[nH]c2c1 [Compound 29] |  |  | Eis inhibition in the HTS [9]: identified as hits; reduction of KAN MIC value compared to KAN alone (Mtb K204; K204 Mtb): four-fold
29 | CCCNC1=NS(=O)(=O)C(c2ccc(C)cc2)=C1C [Compound 139e] | 1.25 | 10 | 
30 | CC1=C(c2ccc(C)cc2)S(=O)(=O)N=C1NCCCN1CCOCC1 [Compound 13e] | 0.625 | 2.5 | 
31 | CC(C)c1ccc(N(C)S(=O)(=O)c2ccc3[nH]c(=O)c(=O)[nH]c3c2)cc1 [Compound 35] |  |  | K204 MICKAN (Mtb K204; anti-TB activity of KAN against Mtb K204 with compound, KAN line = KAN alone): 2.5 µg/mL
32 | CC1=C(c2ccc(C)cc2)S(=O)(=O)N=C1NCCN1CCOCC1 [Compound 35e] | 0.625 | 5 | 
33 | CC1=C(c2ccc(C)c(C)c2)S(=O)(=O)N=C1N1CCC(C(=O)N2CCCC2)CC1 [Compound 52i] | 0.625 | 2.5 | 
34 | CCN(CC)C1=NS(=O)(=O)C(c2ccc(F)cc2)=C1C [Compound 81b] | 0.625 | 2.5 to 5 | 
35 | CC1=C(c2ccccc2)S(=O)(=O)N=C1NCCCN1CCOCC1 [Compound 13a] | 0.625 | 2.5 | 
36 | CCCNC1=NS(=O)(=O)C(c2ccc(F)cc2)=C1C [Compound 139b] | 0.625 | 10 | 
37 | CCN1CCN(CCNC2=NS(=O)(=O)C(c3ccc(F)cc3)=C2C)CC1 [Compound 37b] | 0.625 | 2.5 to 5 | 
38 | CC1=C(c2cccc(Cl)c2)S(=O)(=O)N=C1NCCCN1CCOCC1 [Compound 13g] | 0.625 | 2.5 to 5 | 
39 | CN(c1ccc2ccccc2c1)S(=O)(=O)c1ccc2[nH]c(=O)c(=O)[nH]c2c1 [Compound 46] |  |  | inhibition of KAN acetylation by AAC(2′)-Ic (AAC(2′)-Ic [6]): did not inhibit; inhibition of KAN acetylation by AAC(3)-IV (AAC(3)-IV [7]): did not inhibit; inhibition of KAN acetylation by AAC(6′)-Ie/APH(2″)-Ia (AAC(6′)-Ie/APH(2″)-Ia [8]): did not inhibit; H37Rv MICKAN (Mtb H37Rv): ≤1.25 µg/mL
40 | CC1=C(c2cccc(Br)c2)S(=O)(=O)N=C1N1CCC(N2CCCCC2)CC1 [Compound 46h] | 0.625 | 5 | 
41 | CC1=C(c2ccc(C)cc2)S(=O)(=O)N=C1NCCCN1CC(C)CC(C)C1 (stereo not shown) [Compound 8e] | 0.625 | 2.5 to 5 | 
42 | CC1=C(c2ccc(Cl)cc2)S(=O)(=O)N=C1NCCCN1CCc2ccccc2C1 [Compound 11c] | 0.625 | 1.25 | reduction in KAN MIC against Mtb K204 (K204 Mtb): 8 fold

From US10208000B2, “Eis inhibitors” (priority 2015, dated 2019)
